Source: patent publication US20190218479A1, “Stabilized Liquid Peroxide Compositions” (Novozymes A/S, priority 2016, published 2019)

How the values were obtained:
Format in all cases: physicochemical
Subtilisin1 [1] = target: T1, Subtilisin1 (Lederbergia lenta, UniProt P29600, M216S); assay: Residual activity of Subtilisin1 after storage in peroxide model detergents with or without subtilisin stabilizers (N,N-dimethylcasein/TNBS)
Subtilisin1 [2] = target: T1, Subtilisin1; assay: as above; conditions: model detergents with hydrogen peroxide, pH 7 and 9; summary of Example 2
From the text: Chemicals used as buffers and substrates were commercial products of at least reagent grade. Subtilisin1 has the amino acid sequence as shown in SEQ ID NO: 2, which is a subtilisin having a M216 substitution according to the invention. Subtilisin2 has the amino acid sequence as shown in SEQ ID NO: 1, which is a reference subtilisin not covered by the invention. The stock solution of each subtilisin contains 4.4% w/w of active enzyme protein. Stabilizer1: Cbz-Gly-Ala-Tyr-H (C-terminal aldehyde), wherein Cbz is benzyloxycarbonyl; which is a subtilisin stabilizer according to the invention. When used in the examples below, Stabilizer1 was added to the subtilisin stock solution at a concentration of 0.28% w/w. Stabilizer2: Cbz-Gly-Ala-NHCH(CH2C6H4pOH)CH(OH)(OSO3)Na (hydrosulfite adduct of a C-terminal aldehyde) wherein Cbz is benzyloxycarbonyl; which is a subtilisin stabilizer according to the invention. When used in the examples below, Stabilizer2 was added to the subtilisin stock solution at a concentration of 0.35% w/w. Stabilizer3: MeOCO-Val-Ala-Leu-H (C-terminal aldehyde). When used in the examples below, Stabilizer3 was added to the subtilisin stock solution at a concentration of 0.28% w/w. Stabilizer4: 4-formyl-phenyl-boronic acid (4-FPBA); which is a reference protease stabilizer not covered by the invention. When used in the examples below, Stabilizer4 was added to the subtilisin stock solution at a concentration of 3.4% w/w.
(§1) The compositions were prepared as shown in the examples and samples stored in closed vials for storage. Residual activity was measured by comparing activity in a stored sample at the time of taken out of incubation without freezing and comparing activity to a freshly prepared sample without peroxide and dividing activity in the stored sample with activity in the fresh sample.
(§2) Activity analysis is performed by analysing protease activity by hydrolysis of N,N-dimethylcasein to produce a carboxylic acid and a primary amine compounds. The primary amines that are formed react, under alkaline conditions, with tri-nitrobenzenesulfonic acid (TNBS) to form a colored complex. The amount of colored complex that forms over the fixed reaction period at a constant temperature (530 seconds at 40° C.; complex absorbance is measured at 405 nm) is related to the amount of active protease present in the sample. The amount of colored product complex produced is compared to a standard curve based on known protease concentrations to calculate the amount of active protease in the detergent sample. The amount of protease activity at a specific time point is compared to the t=0 activity level to calculate the % active protease remaining.
This study examined Subtilisin1 stability in the presence of hydrogen peroxide, with and without subtilisin stabilizers (Stabilizer4 and Stabilizer2) in two different model detergents at pH 7 and 9.

[3] = Stability of Subtilisin1 and Subtilisin2 in the liquid peroxide composition of Table 1 (residual protease activity, N,N-dimethylcasein/TNBS); conditions: liquid peroxide composition in Table 1 (0.8% H2O2, pH 7.0), 4 weeks
Protocol: as §1, §2

[4] = Residual hydrogen peroxide after storage, permanganate titration; conditions: liquid peroxide composition in Table 1, 37° C., 4 weeks
Protocol: Residual hydrogen peroxide (H2O2) was measured by permanganate titration (reduction of potassium permanganate by hydrogen peroxide in sulfuric acid).

[5] = Subtilisin1 in “Mix Laundry” (Table 19, pH 7.5) no H2O2, no sodium salicylate, no polyDADMAC
[6] = Subtilisin1 in “Mix Laundry” (Table 19, pH 7.5) with 1% H2O2, with sodium salicylate, with polyDADMAC
[7] = Subtilisin1 in “NI pretreat” (Table 19, pH 7.0) with 1% H2O2, with sodium salicylate, with polyDADMAC
[8] = Subtilisin1 in “NI pretreat” (Table 19, pH 7.0) without H2O2, no sodium salicylate, no polyDADMAC

T1 sequence (P29600 whole entry M216S): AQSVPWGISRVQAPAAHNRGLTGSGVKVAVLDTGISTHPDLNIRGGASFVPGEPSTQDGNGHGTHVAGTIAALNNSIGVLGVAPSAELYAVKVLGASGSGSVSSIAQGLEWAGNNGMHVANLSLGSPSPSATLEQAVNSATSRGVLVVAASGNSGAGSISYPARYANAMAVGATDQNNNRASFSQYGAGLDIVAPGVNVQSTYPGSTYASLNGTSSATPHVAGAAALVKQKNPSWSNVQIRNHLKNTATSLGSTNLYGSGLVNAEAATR

Row | Molecule | Residual activity after storage for 2 weeks at 30° C. (Subtilisin1 [1]; [5]) | Residual activity after storage for 2 weeks at 30° C. (Subtilisin1 [1]; [6]) | Residual activity after storage for 2 weeks at 37° C. (Subtilisin1 [1]; [7]) | Residual activity after storage for 2 weeks at 37° C. (Subtilisin1 [1]; [8]) | stabilization of Subtilisin1, compared to Stabilizer4 (Subtilisin1 [2]) | % Subtilisin residual activity after 4 weeks ([3]; 22° C.) | % Subtilisin residual activity after 4 weeks ([3]; 30° C.) | % Subtilisin residual activity after 4 weeks ([3]; 37° C.) | Residual H2O2 after 4 weeks [4]
1 | O=Cc1ccc(B(O)O)cc1 [Stabilizer4, 4-formyl-phenyl-boronic acid, reference compound] | 86% | 20% | 11% | 129% |  |  |  |  | 
2 | O=BOB(O)OB(O)OB=O [borax, reference compound] | 81% | 43% | 22% | 117% |  |  |  |  | 
3 | Cbz-Gly-Ala-NHCH(CH2C6H4pOH)CH(OH)(OSO3)Na [Stabilizer2] | 83% | 52% | 61% | 98% | much more effective stabilization |  |  |  | 
4 | MeOCO-Val-Ala-Leu-H [Stabilizer3] | 83% | 60% | 64% | 95% |  |  |  |  | 
5 | Subtilisin2: subtilisin with amino acid sequence SEQ ID NO: 1, reference subtilisin not covered by the invention (protein, listed as Bacillus lentus) AQSVPWGISRVQAPAAHNRGLTGSGVKVAVLDTGISTHPDLNIRGGASFVPGEPSTQDGNGHGTHVAGTIAALNNSIGVLGVAPSAELYAVKVLGASGSGSVSSIAQGLEWAGNNGMHVANLSLGSPSPSATLEQAVNSATSRGVLVVAASGNSGAGSISYPARYANAMAVGATDQNNNRASFSQYGAGLDIVAPGVNVQSTYPGSTYASLNGTSMATPHVAGAAALVKQKNPSWSNVQIRNHLKNTATSLGSTNLYGSGLVNAEAATR |  |  |  |  |  | 35% | 33% | 15% | 95.8%
